Assay results reported in ChEMBL document CHEMBL3832547, “Goodman and Gilman Ed. 12 | The Pharmaceutical Basis of Therapeutics| Table AII-I: Pharmacokinetic Data” (2011).

Legend:
Homo sapiens = test: (§1) Pharmacokinetic parameters for Letrozole evaluated following single oral administration of Letrozole tablets; assay type: ADME, organism-based; parameters: dose 2.5 mg, route oral; settings: in vivo
[1] = as §1; assay type: ADME, organism-based; parameters: dose 2.5 mg, route oral; settings: human, in vivo, 2.5 mg

SMILES: N#Cc1ccc(C(c2ccc(C#N)cc2)n2cncn2)cc1 [LETROZOLE]
- Vd (Homo sapiens): 1.87 L/kg
- CL/F [1]: 0.58 mL/min/kg
- Cmax [1]: 115 nM
- Tmax [1]: 1 h
- dose excreted ([1]; read-out: Excretion): 3.9%
